Data published in PubChem BioAssay (NCI).
Where “and” joins values, the source holds several entries; their conditions need not be identical. Equal values may be shown once.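 These data come from cells grown in 96-well plates and exposed to compound for 48 hours at five concentrations. The concentration for 50% growth inhibition is given as GI50. Definition used: TGI = concentration required for complete inhibition of growth.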

Key:
Assay in all cases: inhibition of tumour cell growth, NCI panel, 48 h
EKVX NSCLC = system: EKVX NSCLC
SNB-75 CNS = system: SNB-75 CNS
HCT-15 colon = system: HCT-15 colon
SK-MEL-2 melanoma = system: SK-MEL-2 melanoma
DU-145 prostate = system: DU-145 prostate
SN12C renal = system: SN12C renal
SK-MEL-28 melanoma = system: SK-MEL-28 melanoma
NCI-H226 lung = system: NCI-H226 lung

| SMILES | GI50 (EKVX NSCLC) | TGI (EKVX NSCLC) | GI50 (SNB-75 CNS) | TGI (SNB-75 CNS) | GI50 (HCT-15 colon) | TGI (HCT-15 colon) | GI50 (SK-MEL-2 melanoma) | TGI (SK-MEL-2 melanoma) | GI50 (DU-145 prostate) | TGI (DU-145 prostate) | GI50 (SN12C renal) | TGI (SN12C renal) | TGI (SK-MEL-28 melanoma) | TGI (NCI-H226 lung) | GI50 (SK-MEL-28 melanoma) | GI50 (NCI-H226 lung) |
| --- | --- | --- | --- | --- | --- | --- | --- | --- | --- | --- | --- | --- | --- | --- | --- | --- |
| Cc1[nH]n(-c2cccc(Cl)c2)c(=O)c1/C=C1\C=c2ccccc2=CC1=O | > 100 µM | > 100 µM | 0.927 µM | 32.7 µM | > 100 µM | > 100 µM | 21.8 µM | 70.2 µM | 70 µM | > 100 µM | > 100 µM | > 100 µM |  |  |  |  |
| Cc1ccc(S(=O)(=O)CC2(Br)CCc3ccccc3C2=O)cc1 (stereo not given) |  | > 100 µM |  | 54.9 µM |  | 42.5 µM |  | 44.9 µM |  | > 100 µM |  | > 100 µM | 38.5 µM | > 100 µM |  |  |
| CC(=O)C(C=O)C(C)=O.CC(=O)CC(C)=O.CC(=O)CC(C)=O.[Ru] | 18.1 µM | 95.9 µM | > 100 µM | > 100 µM | 11.7 µM | 93.6 µM | 24.3 µM | > 100 µM | 37.8 µM | > 100 µM | 1.97 µM | 9.18 µM | > 100 µM | 35.2 µM | 48.8 µM | 5.83 µM |
| CCCc1n(Cc2ccc3ccccc3n2)cc[n+]1Cc1ccc2ccccc2n1 | 5.67 µM | > 79.6 µM | 1.46 µM | 8.7 µM | 37.9 µM | > 100 µM | 1.52 µM | 5.68 µM | 4.22 µM | 31.2 µM | 2.23 µM | 11.8 µM | 15.8 µM | 26.2 µM | 1.52 µM | 3.26 µM |
| O=C1NC(=N[C@H](CO)c2ccccc2)S/C1=C\c1ccc2ncccc2c1 |  |  | 1.46 µM | 17.7 µM | 5.2 µM | > 25 µM | 5.49 µM | 14.3 µM | 3.3 µM | > 21.3 µM | 5.02 µM | > 25 µM | > 25 µM | 16.5 µM | 7.96 µM | 4.8 µM |
| CS(=O)(=O)N1CCc2c(-c3cnc(N)nc3)nc(N3CCOCC3)nc21 | 0.988 µM and 0.44 µM | > 10 µM and 5.74 µM | 0.146 µM and 0.135 µM | 1.3 µM and 0.929 µM | 0.397 µM and 0.419 µM | > 100 µM | 1.28 µM and 1.77 µM | 8.66 µM and 14 µM | 0.632 µM and 0.503 µM | > 45.9 µM | 0.648 µM and 0.667 µM | > 100 µM | 8.18 µM and 13.1 µM | 9.45 µM and 12.5 µM | 0.646 µM and 0.695 µM | 0.52 µM and 0.343 µM |
| COc1ccc2nc3cc(Cl)ccc3c(Nc3cc(C(C)C)c(O)cc3C)c2c1 | 2.22 µM | 7.75 µM | 2.16 µM | 7.61 µM | 1.7 µM | 3.62 µM | 1.85 µM | 3.75 µM | 2.48 µM | 6.97 µM | 2.55 µM | 7.42 µM | 4.05 µM | 6.64 µM | 1.91 µM | 2.23 µM |
| Cc1cc(C#Cc2ccccc2)ccc1-n1c(/C=C/c2cc(O)ccc2O)nc2ccccc2c1=O | 1.24 µM | 5.41 µM | 1.3 µM | 2.78 µM | 1.03 µM | 2.21 µM | 1.4 µM | 3.05 µM | 0.419 µM | 1.62 µM | 1.62 µM | 3.01 µM | 2.87 µM | 3.93 µM | 1.53 µM | 1.52 µM |
| C#Cc1ccc(-n2c(/C=C/c3ccc4ccccc4c3)nc3ncccc3c2=O)cc1 |  |  | 2.95 µM | > 100 µM | 2.91 µM | > 100 µM | 2.41 µM | 6.2 µM | 7.45 µM | > 100 µM | 3.29 µM | > 100 µM | > 100 µM |  | 4.33 µM |  |
| CC1COCCN1CC#CCOC(=O)c1cc2ccccc2oc1=O (stereo not given) | > 100 µM | > 100 µM | 83.4 µM | > 100 µM | > 100 µM | > 100 µM | > 100 µM | > 100 µM | > 100 µM | > 100 µM | > 100 µM | > 100 µM | > 100 µM | > 100 µM | > 100 µM | > 100 µM |
| O=C(CSc1ncc(-c2ccccc2)n1-c1ccccc1)Nc1ccc(-c2nc3ccccc3s2)cc1 | 8.82 µM | > 100 µM | 11.1 µM | 29.6 µM | > 100 µM | > 100 µM | 12 µM | 73.2 µM |  |  | 71.5 µM | > 100 µM |  | > 100 µM |  | 43.3 µM |
| CC/C(=N/N=C(N)N)c1ccc(NC(=O)Nc2ccc(/C(CC)=N/N=C(N)N)cc2)cc1 | 6.55 µM | 39.6 µM | 13.6 µM | 42.1 µM | 11.9 µM | 33.2 µM | 4.03 µM | 31.2 µM | 5.02 µM | 30.5 µM | 3.16 µM | 19.4 µM | 46.9 µM | 39.8 µM | 12.6 µM | 10.8 µM |
| COc1ccc2c(c1)C(=O)c1c-2c(N2CCN(C(=O)CCNCCNCCO)CC2)nc2ccccc12 | 14.5 µM | 30.1 µM | 18.6 µM | 37.4 µM | 17.1 µM | 33.9 µM | 24.1 µM | 52.6 µM | 12.1 µM | 24.5 µM | 15.9 µM | 31.7 µM | 23.4 µM | 48.1 µM | 9.22 µM | 22.6 µM |
| CC(C)[C@H](C(=O)O[C@@H]1/C=C/C(=O)O[C@@H](C)CCC/C=C/[C@@H]2C[C@H](O)C[C@H]21)N(C)C | 8.45 µM | > 65.3 µM | 5.8 µM | > 43.2 µM | 14.1 µM | 34.5 µM | 17 µM | > 63.2 µM | 31.5 µM | > 100 µM | 26.7 µM | > 68.7 µM | 28 µM | 44.2 µM | 5.01 µM | 11.2 µM |
| N#CC1C(=O)NC(=O)C1=O (stereo not given) |  | > 100 µM |  | > 100 µM |  | > 100 µM |  | > 100 µM |  |  |  | > 100 µM | > 100 µM | > 100 µM |  |  |
| FC(F)(F)c1ccc(NCc2nc3ccccc3[nH]2)cc1 | 26.8 µM | > 100 µM | 23 µM | > 100 µM | 32.7 µM | > 100 µM | 20.7 µM | 42.1 µM | 47.9 µM | > 100 µM | 29.7 µM | > 100 µM | > 100 µM | > 100 µM | 27.9 µM | 26.1 µM |
